Laboratory results as given in ChEMBL document CHEMBL4808180, “Identification of 2,2-Dimethylbutanoic Acid (HST5040), a Clinical Development Candidate for the Treatment of Propionic Acidemia and Methylmalonic Acidemia” (J Med Chem, 2021).

What was measured:
[1] = Tmax in Gottingen minipig at 10 mg/kg, po using radiolabeled compound by quantitative whole-body autoradiography; format: ADME, organism-based, Sus scrofa domesticus; details: pig, in vivo
[2] = Tmax in CD1 mouse at 300 mg/kg, po; format: ADME, organism-based; details: in vivo
[3] = Reduction of propionyl carnitine in human hepatocytes derived from propionic acidemia patient at 30 uM pretreated for 30 mins followed by 13C-isoleucine addition and measured after 1 hr by MS/MS analysis relative to control; format: functional, Hepatocyte; design: scale not given: the % may be the effect or the level left; details: time 90 min, 1.5 h
[4] = Drug metabolism in Sprague-Dawley rat urine assessed as HST5040-carnitine metabolite formation at 10 mg/kg administered as single dose by LC/MS analysis; format: ADME, organism-based; details: in vivo
[5] = Drug metabolism in mouse hepatocytes assessed as formation of 2,2-dimethylbutanoic acid-CoA incubated for 1 hrs by MS/MS analysis; format: ADME, cell-based; details: Hepatocyte
[6] = Half life in Sprague-Dawley rat plasma at 10 mg/kg, po using radiolabeled compound by quantitative whole-body autoradiography; format: ADME, organism-based; details: in vivo
[7] = Drug metabolism in Gottingen minipig urine assessed as HST5040-glucuronide metabolite formation at 10 mg/kg administered as single dose by LC/MS analysis; format: ADME, organism-based, Sus scrofa domesticus; details: pig, in vivo
[8] = Half life in Sprague-Dawley rat at 10 mg/kg, po; format: ADME, organism-based; details: in vivo
[9] = Stability in minipig hepatocytes assessed as unchanged compound at 50 uM measured after 4 hrs; format: ADME, cell-based, Sus scrofa domesticus, Hepatocyte; details: pig, read-out: Stabilty
[10] = Reduction of CoASH in human hepatocytes at 30 uM pretreated for 30 mins followed by 13C-isoleucine addition and measured after 1 hr by MS/MS analysis relative to control; format: functional, Hepatocyte; design: scale not given: the % may be the effect or the level left; details: time 90 min, 1.5 h
[11] = Drug metabolism in Sprague-Dawley rat plasma assessed as HST5040-glycine metabolite formation at 10 mg/kg administered as single dose using radiolabeled compound by LC/MS analysis; format: ADME, organism-based; details: in vivo
[12] = Reduction of acetyl-CoA in human hepatocytes derived from methylmalonic acidemia patient at 30 uM pretreated for 30 mins followed by 13C-isoleucine addition and measured after 1 hr by MS/MS analysis relative to control; format: functional, Hepatocyte; design: scale not given: the % may be the effect or the level left; details: time 90 min, 1.5 h
[13] = Reduction of acetyl-CoA in human hepatocytes pretreated for 30 mins followed by 13C-isoleucine addition and measured after 1 hr by MS/MS analysis; format: functional, Hepatocyte; design: scale not given: the % may be the effect or the level left; details: dose 30 µM, 0.5 h
[14] = Cmax in CD1 mouse at 100 mg/kg, po; format: ADME, organism-based; design: route oral, dose 100 mg/kg; details: in vivo
[15] = Tmax in CD1 mouse at 30 mg/kg, po; format: ADME, organism-based; details: in vivo
[16] = Half life in Sprague-Dawley rat blood at 10 mg/kg, po by quantitative whole-body autoradiography; format: ADME, organism-based; details: in vivo
[17] = Oral bioavailability in Sprague-Dawley rat at 200 mg/kg; format: ADME, organism-based; details: in vivo
[18] = Induction of toxicity in minipig assessed as increase in number of cells with cytoplasmic vacuoles in renal tubules at >=50 mg/kg/day; format: organism-based, Sus scrofa domesticus; details: pig, in vivo
[19] = Tmax in Sprague-Dawley rat at 200 mg/kg, po; format: ADME, organism-based; details: in vivo
Cytochrome P450 2B6 = target: T1, Cytochrome P450 2B6 (Homo sapiens, UniProt P20813); assay: Direct inhibition of CYP2B6 in human liver microsomes using bupropion as substrate; format: ADME
T1 sequence (P20813 whole entry): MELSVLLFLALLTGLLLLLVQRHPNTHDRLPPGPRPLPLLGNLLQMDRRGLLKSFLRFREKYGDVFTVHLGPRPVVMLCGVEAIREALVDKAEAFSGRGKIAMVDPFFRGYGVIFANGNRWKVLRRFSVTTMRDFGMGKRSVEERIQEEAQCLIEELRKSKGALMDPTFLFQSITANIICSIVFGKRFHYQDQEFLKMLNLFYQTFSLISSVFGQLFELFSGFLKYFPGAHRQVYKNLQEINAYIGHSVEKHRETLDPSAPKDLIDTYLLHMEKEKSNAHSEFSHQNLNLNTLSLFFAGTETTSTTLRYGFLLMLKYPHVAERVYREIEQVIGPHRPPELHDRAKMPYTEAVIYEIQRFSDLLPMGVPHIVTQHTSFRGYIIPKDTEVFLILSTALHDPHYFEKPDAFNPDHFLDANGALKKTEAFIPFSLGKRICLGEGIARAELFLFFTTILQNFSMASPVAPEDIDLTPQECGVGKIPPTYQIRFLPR

[20] = Reduction of propionyl-CoA in human hepatocytes derived from propionic acidemia patient at 30 uM pretreated for 30 mins followed by 13C-isoleucine addition and measured after 1 hr by MS/MS analysis relative to control; format: functional, Hepatocyte; design: scale not given: the % may be the effect or the level left; details: time 90 min, 1.5 h
[21] = AUC (0 to infinity) in Sprague-Dawley rat at 10 mg/kg, po; format: ADME, organism-based; design: time infinity, route oral, dose 10 mg/kg; details: in vivo
[22] = Drug metabolism in rat hepatocytes assessed as formation of 2,2-dimethylbutanoic acid-CoA incubated for 1 hrs by MS/MS analysis; format: ADME, cell-based; details: Hepatocyte
[23] = Drug metabolism in mini-pig hepatocytes assessed as formation of 2,2-dimethylbutanoic acid-CoA incubated for 1 hrs by MS/MS analysis; format: ADME, cell-based, Sus scrofa domesticus; details: Sus scrofa, Hepatocyte
Hepatocyte = assay: Cytotoxicity against rat hepatocytes assessed as reduction in cell viability using radiolabeled compound; format: cell-based
[24] = Drug metabolism in human hepatocytes derived from propionic acidemia patient assessed as formation of 2,2-dimethylbutanoic acid-CoA pretreated for 30 mins followed by 13C-isoleucine addition and measured after 1 hr by MS/MS analysis relative to control; format: ADME, cell-based; details: Hepatocyte
[25] = Drug metabolism in cynomolgus monkey hepatocytes assessed as formation of 2,2-dimethylbutanoic acid-CoA incubated for 1 hrs by MS/MS analysis; format: ADME, cell-based; details: Macaca fascicularis, Hepatocyte
[26] = Drug excretion in Gottingen minipig feces at 10 mg/kg, po using radiolabeled compound by quantitative whole-body autoradiography; format: ADME, organism-based, Sus scrofa domesticus; details: pig, in vivo
[27] = Tmax in Sprague-Dawley rat at 10 mg/kg, po; format: ADME, organism-based; details: in vivo
[28] = Oral bioavailability in CD1 mouse at 30 mg/kg; format: ADME, organism-based; details: in vivo
[29] = Protein binding in Sprague-Dawley rat plasma at 40 uM incubated for 4 hrs by equilibrium dialysis; format: ADME, cell-free
OAT1 = target: T2, OAT1 (Homo sapiens, UniProt Q4U2R8); assay: Inhibition of human OAT1 assessed as reduction in OAT1-mediated tenofovir transport at 14900 uM relative to control; details: not told, probe tenofovir
T2 sequence (Q4U2R8 whole entry): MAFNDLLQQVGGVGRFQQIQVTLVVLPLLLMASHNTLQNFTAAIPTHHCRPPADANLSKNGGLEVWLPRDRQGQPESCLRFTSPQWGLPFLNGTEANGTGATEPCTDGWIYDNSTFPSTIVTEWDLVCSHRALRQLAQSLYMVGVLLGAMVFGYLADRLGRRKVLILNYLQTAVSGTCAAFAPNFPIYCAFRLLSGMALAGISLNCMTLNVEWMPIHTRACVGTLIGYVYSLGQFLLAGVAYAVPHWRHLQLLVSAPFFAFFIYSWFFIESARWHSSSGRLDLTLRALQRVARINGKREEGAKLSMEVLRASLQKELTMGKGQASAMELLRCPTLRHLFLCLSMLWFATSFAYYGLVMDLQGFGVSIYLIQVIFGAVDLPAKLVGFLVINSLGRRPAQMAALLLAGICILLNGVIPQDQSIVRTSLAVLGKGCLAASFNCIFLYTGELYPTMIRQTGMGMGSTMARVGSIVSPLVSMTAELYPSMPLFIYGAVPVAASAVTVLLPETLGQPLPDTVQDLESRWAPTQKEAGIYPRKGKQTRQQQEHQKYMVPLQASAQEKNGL

Tmax [1]: 30 min
Tmax [2]: 30 min
Drug metabolism [4]: Metabolite_Detected
t1/2 [6]: 144 min
Drug metabolism [7]: Metabolite_Detected
half-life [8]: 190 min
remaining at 4 h, 50 µM [9]: 86%
Drug metabolism [11]: Metabolite_Detected
Cmax [14]: 118 µg/mL
Tmax [15]: 26.3 min
t1/2 [16]: 150 min
bioavailability [17]: 126%
Tmax [19]: 25 min
IC50 (Cytochrome P450 2B6): > 10000 µM
AUC(0-inf) [21]: 5520 ng·h/mL
Drug excretion [26]: 2.26%
Tmax [27]: 15 min
bioavailability [28]: 53.4%
PPB [29]: 0%
inhibition at 14900 µM (OAT1): 83.2%
Compound: CCC(C)(C)C(=O)O [DIMEBUTIC ACID]
Activity [3]: -69.4%
EC50 [5]: 130 µM
Activity [10]: -35.2%
Activity [12]: 13.5%
Activity [13]: 20%
Activity [18]: Toxic
Activity [20]: -78.8%
EC50 [22]: 202 µM
EC50 [23]: 8.3 µM
Activity (Hepatocyte): Non-Toxic
EC50 [24]: 3 µM
EC50 [25]: 46.2 µM
